According to ChEMBL document CHEMBL5137098, “Discovery of Substituted Di(pyridin-2-yl)-1,2,4-thiadiazol-5-amines as Novel Macrofilaricidal Compounds for the Treatment of Human Filarial Infections” (J Med Chem, 2022):

What was measured:
[1] = Metabolic stability in rat liver S9 fraction assessed as compound remaining at 3 uM measured at 60 mins by LC-MS/MS analysis; format: ADME, subcellular; details: read-out: Stability
[2] = Metabolic stability in human liver S9 fraction assessed as compound remaining at 3 uM measured at 60 mins by LC-MS/MS analysis; format: ADME, subcellular; details: read-out: Stability
TK6 = experiment: Cytotoxicity in human TK6 cells in presence of Aroclor 1254-induced rat liver S9 fraction by micronucleus test; format: toxicity, cell-based
[3] = Mutagenicity in Escherichia coli WP2 uvrA in presence of liver S9 fraction by AMES test; format: toxicity, subcellular
Litomosoides sigmodontis = experiment: Antiparasitic activity against Litomosoides sigmodontis infected in Meriones assessed as reduction in worm burden at 15 mg/kg, sc BID administered for 7 days; format: functional; parameters: scale not given: the % may be the effect or the level left; details: time 7 day
[4] = Mutagenicity in Salmonella typhimurium TA97 in absence of liver S9 fraction by AMES test; format: toxicity; details: salmonella enterica subsp. enterica serovar typhimurium
[5] = Mutagenicity in Salmonella typhimurium TA100 in absence of liver S9 fraction by AMES test; format: toxicity; details: salmonella enterica subsp. enterica serovar typhimurium
[6] = Mutagenicity in Salmonella typhimurium TA98 in absence of liver S9 fraction by AMES test; format: toxicity; details: salmonella enterica subsp. enterica serovar typhimurium
[7] = Mutagenicity in Salmonella typhimurium TA1535 in presence of liver S9 fraction by AMES test; format: toxicity, subcellular; details: salmonella enterica subsp. enterica serovar typhimurium
[8] = Mutagenicity in Escherichia coli WP2 uvrA in absence of liver S9 fraction by AMES test; format: toxicity
[9] = Mutagenicity in Salmonella typhimurium TA100 in presence of liver S9 fraction by AMES test; format: toxicity, subcellular; details: salmonella enterica subsp. enterica serovar typhimurium
[10] = Mutagenicity in Salmonella typhimurium TA98 in presence of liver S9 fraction by AMES test; format: toxicity, subcellular; details: salmonella enterica subsp. enterica serovar typhimurium
[11] = Mutagenicity in Salmonella typhimurium TA1535 in absence of liver S9 fraction by AMES test; format: toxicity; details: salmonella enterica subsp. enterica serovar typhimurium
[12] = Mutagenicity in Salmonella typhimurium TA97 in presence of liver S9 fraction by AMES test; format: toxicity, subcellular; details: salmonella enterica subsp. enterica serovar typhimurium

| Compound | remaining at 1 h, 3 µM [1] | remaining at 1 h, 3 µM [2] | Activity (TK6) | Activity [3] | Activity (Litomosoides sigmodontis) | Activity [4] | Activity [5] | Activity [6] | Activity [7] | Activity [8] | Activity [9] | Activity [10] | Activity [11] | Activity [12] |
| --- | --- | --- | --- | --- | --- | --- | --- | --- | --- | --- | --- | --- | --- | --- |
| Cc1nccnc1Nc1nc(-c2ccc(OC(C)C)cn2)ns1 | 100% | 94% | Non-Toxic |  |  |  |  |  |  |  |  |  |  |  |
| CC(=O)N(C)c1cccnc1Nc1nc(-c2ccc(OC(C)C)cn2)ns1 |  |  |  | Non-Toxic | 58.9% | Non-Toxic | Non-Toxic | Non-Toxic | Non-Toxic | Non-Toxic | Non-Toxic | Non-Toxic | Non-Toxic | Non-Toxic |
